Laboratory results reported in US10206394B2, “Herbicidal compounds” (Syngenta Participations AG, priority 2014, dated 2019).
Where two headings read alike, the source gives them in different places.

Key:
Experiment in all cases: Glasshouse assay for herbicidal activity (pre- and post-emergence), percentage phytotoxicity
Format in all cases: in vivo
[1] = tested on: Alopecurus myosuroides (ALOMY); conditions: Alopecurus myosuroides
Outline: (§1)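 Sow seed in standard soil in pots; apply test herbicide after 1 day (PRE) or about 12 days (POST). Grow on in the glasshouse, watering twice daily, cool-season species at 20/16 °C and warm-season at 24/18 °C. Score visible damage (0–100%) at 20 or 15 DAA respectively.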

[2] = tested on: Echinochloa crus-galli (ECHCG); conditions: Echinochloa crus-galli
Outline: as §1

Lolium perenne (LOLPE) = conditions: Lolium perenne
Outline: as §1

Avena fatua (AVEFA) = conditions: Avena fatua
Outline: as §1

[3] = post-emergence, 360 h, 250 g/ha, post-emergence, 15 DAA, visual assessment (100%=total damage, 0%=no damage), read-out: Post-emergence herbicidal activity (percentage phytotoxicity) ALOMY POST
[4] = pre-emergence, 480 h, 250 g/ha, pre-emergence, 20 DAA, visual assessment (100%=total damage, 0%=no damage), read-out: Pre-emergence herbicidal activity (percentage phytotoxicity) ALOMY PRE
[5] = post-emergence, 360 h, 250 g/ha, post-emergence, 15 DAA, visual assessment (100%=total damage, 0%=no damage), read-out: Post-emergence herbicidal activity (percentage phytotoxicity) ECHCG POST
[6] = pre-emergence, 480 h, 250 g/ha, pre-emergence, 20 DAA, visual assessment (100%=total damage, 0%=no damage), read-out: Pre-emergence herbicidal activity (percentage phytotoxicity) ECHCG PRE
[7] = post-emergence, 360 h, 250 g/ha, post-emergence, 15 DAA, visual assessment (100%=total damage, 0%=no damage), read-out: Post-emergence herbicidal activity (percentage phytotoxicity) LOLPE POST
[8] = pre-emergence, 480 h, 250 g/ha, pre-emergence, 20 DAA, visual assessment (100%=total damage, 0%=no damage), read-out: Pre-emergence herbicidal activity (percentage phytotoxicity) LOLPE PRE
[9] = post-emergence, 360 h, 250 g/ha, post-emergence, 15 DAA, visual assessment (100%=total damage, 0%=no damage), read-out: Post-emergence herbicidal activity (percentage phytotoxicity) AVEFA POST
[10] = pre-emergence, 480 h, 250 g/ha, pre-emergence, 20 DAA, visual assessment (100%=total damage, 0%=no damage), read-out: Pre-emergence herbicidal activity (percentage phytotoxicity) AVEFA PRE
[11] = post-emergence, 360 h, Rate 250 g/ha, post-emergence, visual assessment 15 DAA, 100%=total damage, 0%=no damage, read-out: Post-emergence herbicidal activity (percentage phytotoxicity) ALOMY POST
[12] = pre-emergence, 480 h, Rate 250 g/ha, pre-emergence, visual assessment 20 DAA, 100%=total damage, 0%=no damage, read-out: Pre-emergence herbicidal activity (percentage phytotoxicity) ALOMY PRE
[13] = post-emergence, 360 h, Rate 250 g/ha, post-emergence, visual assessment 15 DAA, 100%=total damage, 0%=no damage, read-out: Post-emergence herbicidal activity (percentage phytotoxicity) ECHCG POST
[14] = pre-emergence, 480 h, Rate 250 g/ha, pre-emergence, visual assessment 20 DAA, 100%=total damage, 0%=no damage, read-out: Pre-emergence herbicidal activity (percentage phytotoxicity) ECHCG PRE
[15] = post-emergence, 360 h, Rate 250 g/ha, post-emergence, visual assessment 15 DAA, 100%=total damage, 0%=no damage, read-out: Post-emergence herbicidal activity (percentage phytotoxicity) LOLPE POST
[16] = pre-emergence, 480 h, Rate 250 g/ha, pre-emergence, visual assessment 20 DAA, 100%=total damage, 0%=no damage, read-out: Pre-emergence herbicidal activity (percentage phytotoxicity) LOLPE PRE
[17] = post-emergence, 360 h, Rate 250 g/ha, post-emergence, visual assessment 15 DAA, 100%=total damage, 0%=no damage, read-out: Post-emergence herbicidal activity (percentage phytotoxicity) AVEFA POST
[18] = pre-emergence, 480 h, Rate 250 g/ha, pre-emergence, visual assessment 20 DAA, 100%=total damage, 0%=no damage, read-out: Pre-emergence herbicidal activity (percentage phytotoxicity) AVEFA PRE

SMILES	pest or weed control at 250 g/ha [1, 3]	pest or weed control at 250 g/ha [1, 4]	pest or weed control at 250 g/ha [2, 5]	pest or weed control at 250 g/ha [2, 6]	pest or weed control at 250 g/ha (Lolium perenne (LOLPE); [7])	pest or weed control at 250 g/ha (Lolium perenne (LOLPE); [8])	pest or weed control at 250 g/ha (Avena fatua (AVEFA); [9])	pest or weed control at 250 g/ha (Avena fatua (AVEFA); [10])	pest or weed control at 250 g/ha [1, 11]	pest or weed control at 250 g/ha [1, 12]	pest or weed control at 250 g/ha [2, 13]	pest or weed control at 250 g/ha [2, 14]	pest or weed control at 250 g/ha (Lolium perenne (LOLPE); [15])	pest or weed control at 250 g/ha (Lolium perenne (LOLPE); [16])	pest or weed control at 250 g/ha (Avena fatua (AVEFA); [17])	pest or weed control at 250 g/ha (Avena fatua (AVEFA); [18])	further results
Cc1cc(-c2ncc(C#N)cc2F)cc(C)c1C1C(=O)CC(CC(=O)NC(C)(C)C)C1=O (stereo not drawn) [Compound B85]	70%	70%	100%	20%	80%	70%	50%	10%									
Cc1cc(C)c(C2C(=O)CC(CC(=O)NCC3CC3(F)F)C2=O)c(C)c1 (stereo not drawn) [Compound B158]	90%	90%	80%	100%	90%	100%	80%	90%									
Cc1cc(-c2ccc(F)cn2)cc(C)c1C1C(=O)CC(CC(=O)NCc2cccc(Cl)c2)C1=O (stereo not drawn) [Compound B401]									90%	80%	100%	80%	90%	90%	100%	70%	
C=CCNC(=O)CC1CC(=O)C(c2c(C)cc(-c3ncc(Cl)cn3)cc2C)C1=O (stereo not drawn) [Compound B350]									100%	100%	100%	100%	100%	100%	100%	90%	
C/C=C/c1cc(C)c(C2C(=O)CC(CC(=O)NCc3cccc(Cl)c3)C2=O)c(C)c1 (stereo not drawn) [Compound B241]																	pest or weed control at 250 g/ha ([1]; post-emergence, 360 h, POST-emergence, rate 250 g/ha, visual score 15 DAA (100%=total damage, 0%=no damage), read-out: Post-emergence herbicidal activity (percentage phytotoxicity) ALOMY POST): 80%; pest or weed control at 250 g/ha ([1]; pre-emergence, 480 h, PRE-emergence, rate 250 g/ha, visual score 20 DAA (100%=total damage, 0%=no damage), read-out: Pre-emergence herbicidal activity (percentage phytotoxicity) ALOMY PRE): 60%; pest or weed control at 250 g/ha ([2]; post-emergence, 360 h, POST-emergence, rate 250 g/ha, visual score 15 DAA (100%=total damage, 0%=no damage), read-out: Post-emergence herbicidal activity (percentage phytotoxicity) ECHCG POST): 100%; pest or weed control at 250 g/ha ([2]; pre-emergence, 480 h, PRE-emergence, rate 250 g/ha, visual score 20 DAA (100%=total damage, 0%=no damage), read-out: Pre-emergence herbicidal activity (percentage phytotoxicity) ECHCG PRE): 70%; pest or weed control at 250 g/ha (Lolium perenne (LOLPE); post-emergence, 360 h, POST-emergence, rate 250 g/ha, visual score 15 DAA (100%=total damage, 0%=no damage), read-out: Post-emergence herbicidal activity (percentage phytotoxicity) LOLPE POST): 90%; pest or weed control at 250 g/ha (Lolium perenne (LOLPE); pre-emergence, 480 h, PRE-emergence, rate 250 g/ha, visual score 20 DAA (100%=total damage, 0%=no damage), read-out: Pre-emergence herbicidal activity (percentage phytotoxicity) LOLPE PRE): 80%; pest or weed control at 250 g/ha (Avena fatua (AVEFA); post-emergence, 360 h, POST-emergence, rate 250 g/ha, visual score 15 DAA (100%=total damage, 0%=no damage), read-out: Post-emergence herbicidal activity (percentage phytotoxicity) AVEFA POST): 100%; pest or weed control at 250 g/ha (Avena fatua (AVEFA); pre-emergence, 480 h, PRE-emergence, rate 250 g/ha, visual score 20 DAA (100%=total damage, 0%=no damage), read-out: Pre-emergence herbicidal activity (percentage phytotoxicity) AVEFA PRE): 50%
CC#Cc1cc(C)c(C2C(=O)CC(CC(=O)NCCC(F)(F)F)C2=O)c(C)c1 (stereo not drawn) [Compound A58]																	pest or weed control at 250 g/ha ([1]; post-emergence, 360 h, Rate 250 g/ha, post-emergence, assessed visually 15 DAA, 100%=total damage, 0%=no damage, read-out: Post-emergence herbicidal activity (percentage phytotoxicity) ALOMY POST): 100%; pest or weed control at 250 g/ha ([1]; pre-emergence, 480 h, Rate 250 g/ha, pre-emergence, assessed visually 20 DAA, 100%=total damage, 0%=no damage, read-out: Pre-emergence herbicidal activity (percentage phytotoxicity) ALOMY PRE): 100%; pest or weed control at 250 g/ha ([2]; post-emergence, 360 h, Rate 250 g/ha, post-emergence, assessed visually 15 DAA, 100%=total damage, 0%=no damage, read-out: Post-emergence herbicidal activity (percentage phytotoxicity) ECHCG POST): 100%; pest or weed control at 250 g/ha ([2]; pre-emergence, 480 h, Rate 250 g/ha, pre-emergence, assessed visually 20 DAA, 100%=total damage, 0%=no damage, read-out: Pre-emergence herbicidal activity (percentage phytotoxicity) ECHCG PRE): 100%; pest or weed control at 250 g/ha (Lolium perenne (LOLPE); post-emergence, 360 h, Rate 250 g/ha, post-emergence, assessed visually 15 DAA, 100%=total damage, 0%=no damage, read-out: Post-emergence herbicidal activity (percentage phytotoxicity) LOLPE POST): 90%; pest or weed control at 250 g/ha (Lolium perenne (LOLPE); pre-emergence, 480 h, Rate 250 g/ha, pre-emergence, assessed visually 20 DAA, 100%=total damage, 0%=no damage, read-out: Pre-emergence herbicidal activity (percentage phytotoxicity) LOLPE PRE): 90%; pest or weed control at 250 g/ha (Avena fatua (AVEFA); post-emergence, 360 h, Rate 250 g/ha, post-emergence, assessed visually 15 DAA, 100%=total damage, 0%=no damage, read-out: Post-emergence herbicidal activity (percentage phytotoxicity) AVEFA POST): 100%; pest or weed control at 250 g/ha (Avena fatua (AVEFA); pre-emergence, 480 h, Rate 250 g/ha, pre-emergence, assessed visually 20 DAA, 100%=total damage, 0%=no damage, read-out: Pre-emergence herbicidal activity (percentage phytotoxicity) AVEFA PRE): 100%
